In the supplement of paper PMC10307832:

How the values were obtained:
Experiment in all cases: relative viability (nuclei count vs DMSO), 5 days (fraction); higher = more cells survive
Pazopanib + Crizotinib = compound: Cc1ccc(Nc2nccc(N(C)c3ccc4c(C)n(C)nc4c3)n2)cc1S(N)(=O)=O [Pazopanib] + C[C@@H](Oc1cc(-c2cnn(C3CCNCC3)c2)cnc1N)c1c(Cl)ccc(F)c1Cl [Crizotinib] (partner 1 µM)
Summary of the method: (§1)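 Lung cancer cell lines in 1536-well plates were dosed by pin tool the day after seeding, either with one drug alone or with a fixed anchor-drug dose plus five library-drug doses (not always all listed) in √10 steps. After 5 days, cells were fixed and their nuclei stained in one step (final 0.05% Triton X-100, 1% formaldehyde, 1 ug/ml Hoechst), then counted on 4× images. Relative viability is the nuclei count in treated wells divided by that in vehicle wells. Values are medians of duplicate plates.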

Ponatinib + Tozasertib = compound: Cc1ccc(C(=O)Nc2ccc(CN3CCN(C)CC3)c(C(F)(F)F)c2)cc1C#Cc1cnc2cccnn12 [Ponatinib] + Cc1cc(Nc2cc(N3CCN(C)CC3)nc(Sc3ccc(NC(=O)C4CC4)cc3)n2)n[nH]1 [Tozasertib] (partner 0.1 µM)
Summary of the method: as §1

Ponatinib + Foretinib = compound: Cc1ccc(C(=O)Nc2ccc(CN3CCN(C)CC3)c(C(F)(F)F)c2)cc1C#Cc1cnc2cccnn12 [Ponatinib] + COc1cc2c(Oc3ccc(NC(=O)C4(C(=O)Nc5ccc(F)cc5)CC4)cc3F)ccnc2cc1OCCCN1CCOCC1 [Foretinib] (partner 0.25 µM)
Summary of the method: as §1

Pazopanib + Bortezomib = compound: Cc1ccc(Nc2nccc(N(C)c3ccc4c(C)n(C)nc4c3)n2)cc1S(N)(=O)=O [Pazopanib] + CC(C)C[C@H](NC(=O)[C@H](Cc1ccccc1)NC(=O)c1cnccn1)B(O)O [Bortezomib] (partner 0.002 µM)
Summary of the method: as §1

UMC-11 was tested, and the relative viability (Pazopanib + Crizotinib; first compound 0.01 µM) was 0.625, the relative viability (Pazopanib + Crizotinib; first compound 0.03162 µM) was 0.716 and the relative viability (Pazopanib + Crizotinib; first compound 0.1 µM) was 0.708. For the same cell line, the relative viability (Pazopanib + Crizotinib; first compound 0.3162 µM) was 0.675, the relative viability (Pazopanib + Crizotinib; first compound 1 µM) was 0.588 and the relative viability (Ponatinib + Tozasertib; first compound 0.002 µM) was 0.193. The relative viability (Ponatinib + Tozasertib; first compound 0.006325 µM) was 0.223, the relative viability (Ponatinib + Tozasertib; first compound 0.06325 µM) was 0.209 and the relative viability (Ponatinib + Tozasertib; first compound 0.2 µM) was 0.217. It also gave a relative viability (Ponatinib + Foretinib; first compound 0.002 µM) of 1.06, a relative viability (Ponatinib + Foretinib; first compound 0.006325 µM) of 1.04 and a relative viability (Ponatinib + Foretinib; first compound 0.06325 µM) of 1.25. For the same cell line, the relative viability (Ponatinib + Foretinib; first compound 0.2 µM) was 1.03, the relative viability (Pazopanib + Bortezomib; first compound 0.01 µM) was 0.668 and the relative viability (Pazopanib + Bortezomib; first compound 0.03162 µM) was 0.988. It also gave a relative viability (Pazopanib + Bortezomib; first compound 0.1 µM) of 0.781, a relative viability (Pazopanib + Bortezomib; first compound 0.3162 µM) of 0.662 and a relative viability (Pazopanib + Bortezomib; first compound 1 µM) of 0.976.
